Assay results as given in US10906873B2, “Substituted cyclic amides as herbicides” (FMC Corporation, priority 2015, dated 2021).

What was measured:
[1] = test system: barnyardgrass (Echinochloa crus-galli); assay: Test A preemergence, barnyardgrass; assay type: in vivo; conditions: 1000 g ai/ha, 0 to 100 scale
Method in brief: (§1)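 Scores run from 0, no effect, to 100, complete control, assigned visually after roughly 10 d in the greenhouse. Preemergence treatment is a directed spray onto sown loam–sand soil; postemergence treatment targets plants 2 to 10 cm tall.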

[2] = test system: crabgrass (large crabgrass, Digitaria sanguinalis); assay: Test A preemergence, crabgrass; assay type: in vivo; conditions: 1000 g ai/ha, 0 to 100 scale
Excerpt: (§2) Seeds of plant species selected from barnyardgrass (Echinochloa crus-galli), crabgrass (large crabgrass, Digitaria sanguinalis), kochia (Kochia scoparia), ragweed (common ragweed, Ambrosia elatior), morningglory (Ipomoea spp.), velvetleaf (Abutilon theophrasti), ryegrass, It. (Italian ryegrass, Lolium multiflorum), foxtail, giant (giant foxtail, Setaria faberii), wheat (Triticum aestivum), corn (Zea mays), and pigweed (Amaranthus retroflexus), were planted into a blend of loam soil and sand and treated preemergence with a directed soil spray using test chemicals formulated in a non-phytotoxic solvent mixture which included a surfactant. At the same time, plants selected from these crop and weed species and also blackgrass (Alopecurus myosuroides), and galium (catchweed bedstraw, Galium aparine), were planted in pots containing the same blend of loam soil and sand and treated with postemergence applications of test chemicals formulated in the same manner. Plants ranged in height from 2 to 10 cm and were in the one- to two-leaf stage for the postemergence treatment. Treated plants and untreated controls were maintained in a greenhouse for approximately 10 d, after which time all treated plants were compared to untreated controls and visually evaluated for injury. Plant response ratings, summarized in Table A, are based on a 0 to 100 scale where 0 is no effect and 100 is complete control. A dash (-) response means no test result.

[3] = test system: morningglory (Ipomoea spp.); assay: Test A preemergence, morningglory; assay type: in vivo; conditions: 1000 g ai/ha, 0 to 100 scale
Excerpt: as §2

[4] = test system: velvetleaf (Abutilon theophrasti); assay: Test A preemergence, velvetleaf; assay type: in vivo; conditions: 1000 g ai/ha, 0 to 100 scale
Excerpt: as §2

[5] = test system: foxtail, giant (giant foxtail, Setaria faberii); assay: Test A preemergence, foxtail, giant; assay type: in vivo; conditions: 1000 g ai/ha, 0 to 100 scale
Method in brief: as §1

[6] = test system: wheat (Triticum aestivum); assay: Test A preemergence, wheat; assay type: in vivo; conditions: 1000 g ai/ha, 0 to 100 scale
Excerpt: as §2

corn (Zea mays) [7] = assay: Test A preemergence, corn; assay type: in vivo; conditions: 1000 g ai/ha, 0 to 100 scale
Excerpt: as §2

[8] = test system: pigweed (Amaranthus retroflexus); assay: Test A preemergence, pigweed; assay type: in vivo; conditions: 1000 g ai/ha, 0 to 100 scale
Method in brief: as §1

[9] = test system: barnyardgrass (Echinochloa crus-galli); assay: Test A postemergence, barnyardgrass; assay type: in vivo; conditions: 1000 g ai/ha, 0 to 100 scale (0 no effect, 100 complete control)
Method in brief: as §1

[10] = test system: crabgrass (large crabgrass, Digitaria sanguinalis); assay: Test A postemergence, crabgrass; assay type: in vivo; conditions: 1000 g ai/ha, 0 to 100 scale
Excerpt: as §2

[11] = test system: morningglory (Ipomoea spp.); assay: Test A postemergence, morningglory; assay type: in vivo; conditions: 1000 g ai/ha, 0 to 100 scale
Excerpt: as §2

[12] = test system: velvetleaf (Abutilon theophrasti); assay: Test A postemergence, velvetleaf; assay type: in vivo; conditions: 1000 g ai/ha, 0 to 100 scale
Excerpt: as §2

[13] = test system: foxtail, giant (giant foxtail, Setaria faberii); assay: Test A postemergence, foxtail, giant; assay type: in vivo; conditions: 1000 g ai/ha, 0 to 100 scale
Method in brief: as §1

[14] = test system: wheat (Triticum aestivum); assay: Test A postemergence, wheat; assay type: in vivo; conditions: 1000 g ai/ha, 0 to 100 scale
Method in brief: as §1

corn (Zea mays) [15] = assay: Test A postemergence, corn; assay type: in vivo; conditions: 1000 g ai/ha, 0 to 100 scale
Method in brief: as §1

[16] = test system: pigweed (Amaranthus retroflexus); assay: Test A postemergence, pigweed; assay type: in vivo; conditions: 1000 g ai/ha, 0 to 100 scale
Method in brief: as §1

[17] = test system: barnyardgrass (Echinochloa crus-galli); assay: Test B flooded paddy test, barnyardgrass; assay type: in vivo; conditions: Flood, 1000 g ai/ha; scale of 0 to 100 where 0 is no effect and 100 is complete control; 13 to 15 d
Method in brief: (§3)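 Plants at the 2-leaf stage were flooded to 3 cm above soil, and test compounds were applied directly into the paddy water, which was held at that depth throughout. After 13 to 15 d in a greenhouse, injury was rated visually against untreated controls on a 0–100 scale (0 no effect, 100 complete control).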

[18] = test system: ducksalad (Heteranthera limosa); assay: Test B flooded paddy test, ducksalad; assay type: in vivo; conditions: Flood, 1000 g ai/ha; scale of 0 to 100 where 0 is no effect and 100 is complete control; 13 to 15 d
Method in brief: as §3

rice (Oryza sativa) = assay: Test B flooded paddy test, rice; assay type: in vivo; conditions: Flood, 1000 g ai/ha; scale of 0 to 100 where 0 is no effect and 100 is complete control; 13 to 15 d
Method in brief: as §3

[19] = test system: sedge, umbrella (small-flower umbrella sedge, Cyperus difformis); assay: Test B flooded paddy test, sedge, umbrella; assay type: in vivo; conditions: Flood, 1000 g ai/ha; scale of 0 to 100 where 0 is no effect and 100 is complete control; 13 to 15 d
Method in brief: as §3

Q: Which “Plant response rating, Barnyardgrass” value [1] does the source give for `O=C1NCC(Cc2cccc(Cl)c2)C1C(=O)Nc1cccc(F)c1F` (stereo not drawn) [Compound 1, 4-[(3-chlorophenyl)methyl]-N-(2,3-difluorophenyl)-2-oxo-3-pyrrolidinecarboxamide] here?
A: Its value is 70.

Q: What about the “Plant response rating, Crabgrass” value [2] of the same compound?
A: Its value is 90.

Q: What about the “Plant response rating, Morningglory” value [3] of the same compound?
A: The value was 0.

Q: And the “Plant response rating, Velvetleaf” value [4]?
A: The value was 0.

Q: And the “Plant response rating, Foxtail, Giant” value [5]?
A: Its value is 90.

Q: And the “Plant response rating, Wheat” value [6]?
A: Its value is 0.

Q: And the “Plant response rating, Corn” value (corn (Zea mays) [7])?
A: The value was 0.

Q: And the “Plant response rating, Pigweed” value [8]?
A: The value was 0.

Q: What about the “Plant response rating, Barnyardgrass” value [9] of the same compound?
A: The value was 80.

Q: And the “Plant response rating, Crabgrass” value [10]?
A: Its value is 80.

Q: And the “Plant response rating, Morningglory” value [11]?
A: The value was 0.

Q: And the “Plant response rating, Velvetleaf” value [12]?
A: The value was 10.

Q: And the “Plant response rating, Foxtail, Giant” value [13]?
A: Its value is 80.

Q: What about the “Plant response rating, Wheat” value [14] of the same compound?
A: The value was 0.

Q: And the “Plant response rating, Corn” value (corn (Zea mays) [15])?
A: Its value is 0.

Q: And the “Plant response rating, Pigweed” value [16]?
A: Its value is 0.

Q: What about the “Plant response rating, Barnyardgrass” value [17] of the same compound?
A: Its value is 0.

Q: What about the “Plant response rating, Ducksalad” value [18] of the same compound?
A: The value was 50.

Q: And the “Plant response rating, Rice” value (rice (Oryza sativa))?
A: The value was 0.

Q: And the “Plant response rating, Sedge, Umbrella” value [19]?
A: The value was 0.

Q: And the melting point?
A: Its melting point is 132 to 134 °C.
